According to US20230123334A1, “AMINO LIPID COMPOUND, PREPARATION METHOD THEREFOR, AND APPLICATION THEREOF” (SHENZHEN SHENXIN BIOTECHNOLOGY CO., LTD., priority 2020, published 2023):

tested on: HEK293 cells; test: Preliminary screening as DNA vectors, GFP transfection of HEK293 cells; type: cell-based; details: HEK293 cells; lipid/DOPE liposome with 75 ng plasmid DNA (psin-EGFP-IRES-Puro); number of cells expressing GFP divided by total number of nuclei (Hoechst)
Summary of the method: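 First, amino lipid and DOPE were vortexed in sodium acetate buffer (pH 5.6) to form liposomes. Next, these were held with 75 ng EGFP plasmid at room temperature for 30 min. Finally, HEK293 cells were added, cultured at 37° C., Hoechst-stained, and GFP+/total nuclei scored by imaging.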

`CCCCCCCCCCCCN(CCCCCCCCCCCC)c1nc(NCCN2CCN(C)CC2)nc(N(CCCCCCCCCCCC)CCCCCCCCCCCC)n1` [2N12^2N12D5] and `CCCCCCCCCCCCN(CCCCCCCCCCCC)c1nc(NCCCN(C)C)nc(N(CCCCCCCCCCCC)CCCCCCCCCCCC)n1` [2N12^2N12D6] are the same in “Absolute DNA transfection efficiency in HEK293 cells” value (“Absolute DNA transfection efficiency” below): 0.0% for the first, 0.0% for the second.

Going from `CCCCCCCCCCCCSc1nc(NCCCN(C)C)nc(SCCCCCCCCCCC)n1` [Compound S11S12D6] to `CCCCCCCCCCCSc1nc(NCCCN2CCN(C)CC2)nc(SCCCCCCCCCC)n1` [Compound S10S11D9], the “Absolute DNA transfection efficiency” value rises from 5.2% to 13.6%.

Going from `CCCCCCCCCCCCCCCCCCNc1nc(NCCCN2CCN(C)CC2)nc(N(CCCCCCCCCCCC)CCCCCCCCCCCC)n1` [N18^2N12D9] to `CCCCCCCCCCCCN(CCCCCCCCCCCC)c1nc(NCCCCCCC)nc(NCCN2CCOCC2)n1` [N7^2N12D2], the “Absolute DNA transfection efficiency” value rises from 0.6% to 1.7%.

Compared with `CCCCCCCCCCCCCCCNc1nc(NCCCCCCCCCCCC)nc(NCCN(C)C)n1` [Compound N12N15D1], `CCCCCCCCCCCCNc1nc(NCCCCCCCCC)nc(NCCN2CCCCC2)n1` [Compound N9N12D4] is lower in “Absolute DNA transfection efficiency” value: 1.5% for the first, 0.0% for the second.

tested on: HEK293 cells; test: Preliminary screening as mRNA vectors, EGFP mRNA transfection of HEK293 cells; type: cell-based; details: EGFP mRNA 50 ng per well, 96-well plates; percentage of GFP fluorescent cells relative to total number of cells (Hoechst)
Summary of the method: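 Screening format: EGFP mRNA transfection (50 ng/well) into HEK293 in 10% FBS-supplemented DMEM. Percent green fluorescent cells, normalised to Hoechst nuclear count, gave the value; Lipofectamine2000 was the reference transfectant.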

Compared with `CCCCCCCCCCCCCCCNc1nc(NCCN2CCOCC2)nc(SCCCCCCCC)n1` [Compound D2S8N15], `CCCCCCCCCCCCNc1nc(NCCN2CCOCC2)nc(SCCCCCCCCCC)n1` [Compound D2S10N12] is lower in “Absolute mRNA transfection efficiency in HEK293 cells” value (shortened to “Absolute mRNA transfection efficiency”): 5.5% for the first, 1.5% for the second.

Going from `CCCCCCCCCCCCCCCCSc1nc(NCCCCCCC)nc(NCCCN2CCOCC2)n1` [Compound D8S16N7] to `CCCCCCCCCCCCCCSc1nc(NCCCCCCCCC)nc(NCCCN2CCN(C)CC2)n1` [Compound D9S14N9], the “Absolute mRNA transfection efficiency” value rises from 17.7% to 23.7%.

Going from `CCCCCCCCNc1nc(NCCCN2CCN(C)CC2)nc(SCCCCCCCC)n1` [Compound D9S8N8] to `CCCCCCCCCCCCSc1nc(NCCCCCC)nc(NCCCN2CCN(C)CC2)n1` [Compound D9S12N6], the “Absolute mRNA transfection efficiency” value falls from 4.5% to 0.2%.

`CCCCCCCCCCCCN(CCCCCCCCCCCC)c1nc(NCCN(CC)CC)nc(SCCCCCCCC)n1` [D7S8^2N12] and `CCCCCCCCCCCCCCCCSc1nc(NCCCCCCCCCCCC)nc(NCCN(CC)CC)n1` [Compound D7S16N12] are the same in “Absolute mRNA transfection efficiency” value: 1.3% for the first, 1.3% for the second.

Going from `CCCCCCCCCCCCN(CCCCCCCCCCCC)c1nc(NCCCN2CCOCC2)nc(SCCCCCCCCCCC)n1` [D8S11^2N12] to `CCCCCCCCCCCCN(CCCCCCCCCCCC)c1nc(NCCCN2CCOCC2)nc(SCCCCCCCCC)n1` [D8S9^2N12], the “Absolute mRNA transfection efficiency” value falls from 0.4% to 0.3%.

First: CCCCCCCCCCCNc1nc(NCCN2CCOCC2)nc(SCCCCCC)n1 [Compound D2S6N11]
Second: CCCCCCCCCNc1nc(NCCN2CCOCC2)nc(SCCCCCCC)n1 [Compound D2S7N9]
The “Absolute mRNA transfection efficiency” value of the first is lower: 0.8% for the first, 8.7% for the second.

Going from `CCCCCCCCCCCNc1nc(NCCN(C)C)nc(SCCCCCCC)n1` [Compound D1S7N11] to `CCCCCCCCCCCCCNc1nc(NCCN(CC)CC)nc(SCCCCCCCC)n1` [Compound D7S8N13], the “Absolute mRNA transfection efficiency” value rises from 5.8% to 14.2%.

Compared with `CCCCCCCCCCCCCCCCCCNc1nc(NCCN(CC)CC)nc(SCCCCCCC)n1` [Compound D7S7N18], `CCCCCCCCCCCCCCCSc1nc(NCCCCCCCC)nc(NCCN(CC)CC)n1` [Compound D7S15N8] is higher in “Absolute mRNA transfection efficiency” value: 16.7% for the first, 18.0% for the second.

Going from `CCCCCCCCCCCCCCCCCCNc1nc(NCCN2CCCC2)nc(SCCCCCC)n1` [Compound D3S6N18] to `CCCCCCCCCCCCCCSc1nc(NCCCCCCCCCCCCC)nc(NCCN2CCCCC2)n1` [Compound D4S14N13], the “Absolute mRNA transfection efficiency” value falls from 32.5% to 14.5%.

Going from `CCCCCCCSc1nc(NCCCN2CCN(C)CC2)nc(SCCCCCC)n1` [Compound D9S6S7] to `CCCCCCCCCSc1nc(NCCN2CCN(C)CC2)nc(SCCCCCCC)n1` [Compound D5S7S9], the “Absolute mRNA transfection efficiency” value rises from 6.3% to 20.6%.

Going from `CCCCCCCCCCCCCCCCNc1nc(NCCN2CCN(C)CC2)nc(SCCCCCC)n1` [Compound D5S6N16] to `CCCCCCCCCCCCCCCSc1nc(NCCCCCCCCCCC)nc(NCCN2CCN(C)CC2)n1` [Compound D5S15N11], the “Absolute mRNA transfection efficiency” value falls from 35.4% to 12.7%.

Compared with `CCCCCCCCCCCCSc1nc(NCCCCCCC)nc(NCCN2CCOCC2)n1` [Compound D2S12N7], `CCCCCCCCNc1nc(NCCCN2CCOCC2)nc(SCCCCCCC)n1` [Compound D8S7N8] is higher in “Absolute mRNA transfection efficiency” value: 0.4% for the first, 1.8% for the second.

`CCCCCCCCCCCCCCCCCCNc1nc(NCCN2CCOCC2)nc(SCCCCCCCCCCCCCCCC)n1` [Compound D2S16N18] and `CCCCCCCCCCCCCCCCCCNc1nc(NCCN2CCN(C)CC2)nc(SCCCCCCCCCCCCCCCCCC)n1` [Compound D5S18N18] are the same in “Absolute mRNA transfection efficiency” value: 0.0% for the first, 0.0% for the second.

First: CCCCCCCCCCCCCCCCCCSc1nc(NCCCCCCCCCCCC)nc(NCCN2CCCC2)n1 [Compound D3S18N12]
Second: CCCCCCCCCCCCCCCCNc1nc(NCCN2CCCC2)nc(SCCCCCCCCCCCCCC)n1 [Compound D3S14N16]
The “Absolute mRNA transfection efficiency” value of the first is higher: 5.2% for the first, 1.2% for the second.

Going from `CCCCCCCCCCCCCCSc1nc(NCC2CCN(C)CC2)nc(SCCCCCCC)n1` [Compound D10S7S14] to `CCCCCCCCCCCCCCSc1nc(NCCCCCCC)nc(NCC2CCN(C)CC2)n1` [Compound D10S14N7], the “Absolute mRNA transfection efficiency” value falls from 88.7% to 55.0%.

First: CCCCCCCCCCSc1nc(NCCN2CCCC2)nc(SCCCCCCC)n1 [Compound D3S7S10]
Second: CCCCCCCCCCCCCCCSc1nc(NCCN2CCCCC2)nc(SCCCCCCC)n1 [Compound D4S7S15]
The “Absolute mRNA transfection efficiency” value of the first is lower: 3.3% for the first, 6.7% for the second.

First: CCCCCCCCCSc1nc(NCCN(CC)CC)nc(SCCCCCCC)n1 [Compound D7S7S9]
Second: CCCCCCCCCCCCCCCCCCSc1nc(NCCN2CCOCC2)nc(SCCCCCCC)n1 [Compound D2S7S18]
The “Absolute mRNA transfection efficiency” value of the first is higher: 13.5% for the first, 5.1% for the second.

Compared with `CCCCCCCCCCCCCCCNc1nc(NCCN(C)C)nc(SCCCCCCCCCCCCCC)n1` [Compound D1S14N15], `CCCCCCCCCCCCCCCCCCNc1nc(NCCCN2CCN(C)CC2)nc(SCCCCCCCCCC)n1` [Compound D9S10N18] is higher in “Absolute mRNA transfection efficiency” value: 1.1% for the first, 9.0% for the second.

Compared with `CCCCCCCCCCCCCCCCNc1nc(NCCN2CCCCC2)nc(SCCCCCCCCCCCC)n1` [Compound D4S12N16], `CCCCCCCCCCCCN(CCCCCCCCCCCC)c1nc(NCCCN2CCN(C)CC2)nc(SCCCCCCC)n1` [D9S7^2N12] is lower in “Absolute mRNA transfection efficiency” value: 1.3% for the first, 1.0% for the second.

same assay, conditions: HEK293 cells, 96-well plates, EGFP mRNA 50 ng per well; percentage of GFP fluorescent cells relative to total number of cells (Hoechst)

Compared with `CCCCCCCCCCCCN(CCCCCCCCCCCC)c1nc(NCCN2CCN(C)CC2)nc(N(CCCCCCCCCCCC)CCCCCCCCCCCC)n1` [2N12^2N12D5], `CCCCCCCCCCCCN(CCCCCCCCCCCC)c1nc(NCCCN(C)C)nc(N(CCCCCCCCCCCC)CCCCCCCCCCCC)n1` [2N12^2N12D6] is lower in “Absolute mRNA transfection efficiency” value: 2.7% for the first, 0.2% for the second.

Going from `CCCCCCCCCCCCSc1nc(NCCCN(C)C)nc(SCCCCCCCCCCC)n1` [Compound S11S12D6] to `CCCCCCCCCCCSc1nc(NCCCN2CCN(C)CC2)nc(SCCCCCCCCCC)n1` [Compound S10S11D9], the “Absolute mRNA transfection efficiency” value rises from 21.5% to 60.6%.

Compared with `CCCCCCCCCCCCCCCCCCNc1nc(NCCCN2CCN(C)CC2)nc(N(CCCCCCCCCCCC)CCCCCCCCCCCC)n1` [N18^2N12D9], `CCCCCCCCCCCCN(CCCCCCCCCCCC)c1nc(NCCCCCCC)nc(NCCN2CCOCC2)n1` [N7^2N12D2] is higher in “Absolute mRNA transfection efficiency” value: 0.6% for the first, 0.9% for the second.

First: CCCCCCCCCCCCCCCNc1nc(NCCCCCCCCCCCC)nc(NCCN(C)C)n1 [Compound N12N15D1]
Second: CCCCCCCCCCCCNc1nc(NCCCCCCCCC)nc(NCCN2CCCCC2)n1 [Compound N9N12D4]
The “Absolute mRNA transfection efficiency” value of the first is lower: 1.0% for the first, 2.4% for the second.
